Reference: US9579406B2, “Phospholipid ether analogs as agents for detecting and locating cancer, and methods thereof” (Cellectar, Inc., priority 2004, dated 2017)
Entries after “also recorded” stand apart in the source; their conditions may differ.

Key:
[1] = test system: A549 (human non-small cell lung cancer); assay: Radiotherapy study in A549 SCID mouse xenograft model; assay type: in vivo
Procedure: Stimulated by these and other observations, the inventors recently conducted a small ^125I-NM404 pilot therapy study in SCID mice with human A549 lung tumor xenografts. ^125I-NM404 was administered as either a single dose or alternatively in 3 doses (once a week for 3 weeks) to groups of 6 mice and a separate cohort received an equivalent mass dose of unlabeled NM404 for comparison. Single doses were 50 or 500 μCi and the repeat dose group received a total of 3 weekly 50 μCi doses. Tumor growth was monitored for 10 weeks following final injection. […] New arms are now being initiated to cover the dose levels between the current ones in order to more accurately evaluate the therapeutic potential of this agent.
A549 (human non-small cell lung cancer, NSCLC, from ATCC) are maintained in Ham's F-12K media supplemented with 10% fetal bovine serum. […]. Animals are given free access to food and water, tumor growth and animal weight are monitored. […].
The tumor model used for this study was A549, a human non-small cell lung cancer, (NSCLC) obtained from ATCC (Manassas, Va.). The tumor cells are maintained in Ham's F-12K media supplemented with 10% fetal bovine serum. […]. Animals are given free access to food and water. Upon reaching 5-10 mm in tumor diameter, mice will be enrolled in the study.
A single intravenous injection of SF404A was performed at Day 0. For the control group, cold compound (C-NM404) has been injected. For treatment groups I-125-NM404 has been injected.
The study contained 5 groups; 4 treatment groups (n=6/group) and 1 control group (n=9). The iodine doses for the treatment groups were 50, 150, 250 and 500 μCi per mouse. The control group was dosed with an equivalent mass amount of C-NM404 (0 μCi).
Assessments were made until 10 weeks post-injection or until no animal in the control group is alive, whatever comes first. […]

[2] = test system: SCC1 and SCC6 squamous cell tumors; assay: SCC1 and SCC6 xenografts in nude mice, single injection; assay type: in vivo
Source text: Due to its 60-day physical half-life and low energy 35 KeV photon emission, iodine-125 is suitable for imaging experiments in mice and rats. Iodine-125 also affords therapeutic characteristics. In one imaging experiment (FIG. 6), 2 nude mice were each inoculated with subcutaneous squamous cell lines SCC1 and SCC6 tumor cell implants on opposing flanks. SCC1 and SSC6 cells were used because one is radiosensitive relative to the other. After 14 days when the average tumor size was approaching 0.5 cm in diameter, one of the mice received 20 μCi of I-125-NM-404 and the other one receive unlabeled NM404 in an equal mass dose. The mouse receiving the unlabeled cold compound had to be euthanized 20 days after injection due to both tumors reaching the termination size limit as defined in the animal use protocol. […] This mouse never did reach terminal tumor size and the mouse was actually euthanized after 90 days in order to collect histology sections.

lymph node metastases = assay: Scintigraphy in metastatic prostate tumor model; conditions: in vivo
Source text: A variety of tumors including mammary, prostate, squamous cell carcinoma, ovarian, colorectal, and melanoma were successfully visualized by scintigraphy with NM324.
This agent has also been evaluated preclinically in a metastatic prostate tumor model in which lymph node metastases were clearly delineated by scintigraphy following intravenous administration of NM404 but, pertinently, the tracer was not retained by uninvolved lymph nodes. Selectivity of NM404 for malignant cells is particularly relevant in prostate cancer as conventional tumor markers such as PSA may also be elevated in a variety of benign disease states including prostatitis and benign prostatic hypertrophy. Furthermore, selective uptake and prolonged retention by tumor cells supports a role for NM404 as a tumor-selective diagnostic and therapeutic agent.

[3] = test system: xenograft and spontaneous tumor models; assay: Imaging and tissue distribution across preclinical animal tumor models; assay type: in vivo
[4] = test system: benign intestinal adenomas, preneoplastic hyperplasias; assay: Selectivity for benign and preneoplastic lesions; assay type: in vivo, mouse
Source text: (§1) Although tumor retention can be explained by a lack of metabolic phospholipase enzymes in the tumor cell membranes, the exact mechanism of tumor cell uptake is unknown. […] The inventors are currently evaluating the selectivity of NM404 in a unique mouse tumor model developed at Wisconsin, wherein both preneoplastic hyperplasias and malignant adenocarcinomas form spontaneously in the mammary gland. […] If this initial observation is validated, then via genomic and or proteomic analysis the inventors may be able to identify a key genetic difference between malignant tumors and their non malignant predecessor cells. This could identify a completely new molecular therapeutic target that may be universal for all types of cancer.

Adrenal H-295 = assay: Tumor models examined with NM404 (Table 2); assay type: in vivo, SCID Mouse; conditions: Adenocarcinoma
Source text: (§2) NM404 has now been evaluated in 27 animal tumor models, including several lung, and it is clear that once the agent enters tumor cells, it reaches a metabolic dead end and becomes trapped. […] NM404 is also retained in spontaneous murine lung tumors (FIG. 13). Using ^125I-labeled NM404, the inventors have been able to image mammary and prostate tumors in mice in excess of 60 days. […] Imaging and tissue distribution studies performed in mouse models aimed at determining the uptake characteristics in a wide variety of tumor models are summarized in Table 2.
as §1

Adrenal RL-251 = assay: Tumor models examined with NM404 (Table 2); assay type: in vivo, SCID Mouse; conditions: Adenocarcinoma
Source text: as §2, §1

Lung A-549 (NSCC) = assay: Tumor models examined with NM404 (Table 2); assay type: in vivo, SCID Mouse; conditions: Adenocarcinoma
Source text: as §2, §1

Prostate PC-3 = assay: Tumor models examined with NM404 (Table 2); assay type: in vivo, SCID Mouse; conditions: Adenocarcinoma
Source text: as §2, §1

Mammary MCF-7 = assay: Tumor models examined with NM404 (Table 2); assay type: in vivo, Rat; conditions: Adenocarcinoma
Source text: as §2, §1

Prostate MatLyLu = assay: Tumor models examined with NM404 (Table 2); assay type: in vivo, Rat; conditions: Adenocarcinoma
Source text: as §2, §1

Walker-256 = assay: Tumor models examined with NM404 (Table 2); assay type: in vivo, Rat; conditions: Carcinosarcoma
Source text: as §2, §1

[5] = test system: human RL-251 adrenal tumor xenograft; assay: Time course in human RL-251 adrenal cancer xenograft; design: species or system SCID mouse; conditions: mouse, in vivo
Source text: as §2

SMILES: C[N+](C)(C)CCOP(=O)([O-])OCCCCCCCCCCCCCCCCCCc1ccc(I)cc1 [NM-404, 18-(4-iodophenyl)-octadecylphosphocholine]
- effect on tumor growth ([1]; 0 μCi, equivalent mass dose, 10 weeks): no substantial effect on tumors growth
- therapy effect of fractionated dosing versus single dose ([1]; 3×50 micro-Ci versus single 150 micro-Ci): produced the same therapy effect
- average tumor volume ([1]; Control 0 μCi (n = 7), week 0): 1152 mm^3
- average tumor volume ([1]; Control 0 μCi, week 1): 1289 mm^3
- average tumor volume ([1]; Control 0 μCi, week 2): 1667 mm^3
- average tumor volume ([1]; Control 0 μCi, week 3): 2418 mm^3
- average tumor volume ([1]; Control 0 μCi, week 4): 3169 mm^3
- average tumor volume ([1]; Control 0 μCi, week 5): 3763 mm^3
- average tumor volume ([1]; Control 0 μCi, week 6): 4971 mm^3
- average tumor volume ([1]; Control 0 μCi, week 7): 6207 mm^3
- average tumor volume ([1]; Control 0 μCi, week 8): 6253 mm^3
- average tumor volume ([1]; Control 0 μCi, week 9): 7175 mm^3
- average tumor volume ([1]; Control 0 μCi, week 10): 7068 mm^3
- time to euthanasia due to both tumors reaching termination size limit ([2]; unlabeled, equal mass dose): 20 days
- localization in lymph node metastases (lymph node metastases): clearly delineated by scintigraphy in a metastatic prostate tumor model without retention in uninvolved lymph nodes
- uptake of injected dose into the tumor tissue ([3]; in vivo): 10-25%
- localization in infectious / inflammatory sites ([3]; preclinical models): does not localize in infectious sites; also recorded: is not retained in inflammatory tissues
- retention in normal, premalignant or hyperplastic tissues ([3]; preclinical models): is not retained in normal, premalignant, or hyperplastic tissues
- uptake and retention in preneoplastic lesions ([4]; mammary gland model, preliminary): not taken up and retained in preneoplastic lesions
- localization in benign intestinal adenomas ([4]; mouse, in vivo): does not localize in benign intestinal adenomas (polyps)
- NM404 Tumor Localization (Adrenal H-295): Yes (Localization defined as >5% injected dose per gram tumor basis based on tissue distribution data)
- NM404 Tumor Localization (Adrenal RL-251): Yes (Localization defined as >5% injected dose per gram tumor basis based on tissue distribution data)
- NM404 Tumor Localization (Lung A-549 (NSCC)): Yes (Localization defined as >5% injected dose per gram tumor basis based on tissue distribution data)
- NM404 Tumor Localization (Prostate PC-3): Yes (Localization defined as >5% injected dose per gram tumor basis based on tissue distribution data)
- NM404 Tumor Localization (Mammary MCF-7): Yes (Localization defined as >5% injected dose per gram tumor basis based on tissue distribution data)
- NM404 Tumor Localization (Prostate MatLyLu): Yes (Localization defined as >5% injected dose per gram tumor basis based on tissue distribution data)
- NM404 Tumor Localization (Walker-256): Yes (Localization defined as >5% injected dose per gram tumor basis based on tissue distribution data)

SMILES: C[N+](C)(C)CCOP(=O)([O-])OCCCCCCCCCCCCCCCCCCc1ccc([125I])cc1 [Compound I-125-NM404]
- dose relationship of effect on tumor volume ([1]; 50-500 μCi): dose-linear effect
- average tumor volume ([1]; 50 μCi (n = 4), week 0): 198 mm^3
- treatment effect on tumor volume ([1]; 50 μCi single injection, 10 weeks): did not show any difference to control animals
- average tumor volume ([1]; 50 μCi, week 1): 599 mm^3
- average tumor volume ([1]; 50 μCi, week 2): 691 mm^3
- average tumor volume ([1]; 50 μCi, week 3): 987 mm^3
- average tumor volume ([1]; 50 μCi, week 4): 2283 mm^3
- average tumor volume ([1]; 50 μCi, week 5): 3977 mm^3
- average tumor volume ([1]; 50 μCi, week 6): 4951 mm^3
- average tumor volume ([1]; 50 μCi, week 7): 6999 mm^3
- average tumor volume ([1]; 50 μCi, week 8): 8188 mm^3
- average tumor volume ([1]; 50 μCi, week 9): 9978 mm^3
- average tumor volume ([1]; 50 μCi, week 10): 8342 mm^3
- tumor growth ([1]; 150 microCi, large tumors (>1 cm)): did not show any effects
- tumor growth ([1]; 150 microCi, small tumors (<1 cm)): stunned tumor growth
- average tumor volume ([1]; 150 μCi (n = 5), week 0): 1699 mm^3
- average tumor volume ([1]; 150 μCi, week 1): 1847 mm^3
- average tumor volume ([1]; 150 μCi, week 2): 2430 mm^3
- average tumor volume ([1]; 150 μCi, week 3): 2758 mm^3
- average tumor volume ([1]; 150 μCi, week 4): 4144 mm^3
- average tumor volume ([1]; 150 μCi, week 5): 4478 mm^3
- average tumor volume ([1]; 150 μCi, week 6): 4668 mm^3
- average tumor volume ([1]; 150 μCi, week 7): 4817 mm^3
- average tumor volume ([1]; 150 μCi, week 8): 6049 mm^3
- average tumor volume ([1]; 150 μCi, week 9): 7780 mm^3
- average tumor volume ([1]; 150 μCi, week 10): 6894 mm^3
- average tumor volume ([1]; 250 μCi (n = 6), week 0): 360 mm^3
- treatment effect on tumor volume ([1]; 250 μCi single injection): substantial and prolonged treatment effect
- effect on the tumor ([1]; 250 μCi, 4 weeks following injection): causes central necrosis
- average tumor volume ([1]; 250 μCi, week 2): 756 mm^3
- average tumor volume ([1]; 250 μCi, week 3): 821 mm^3
- average tumor volume ([1]; 500 μCi (n = 5), week 0): 1041 mm^3
- signs of toxicity ([1]; 500 μCi dose): none of the mice showed any signs of toxicity
- treatment effect on tumor volume ([1]; 500 μCi single injection): substantial and prolonged treatment effect
- average tumor volume ([1]; 500 μCi, week 1): 964 mm^3
- average tumor volume ([1]; 500 μCi, week 2): 1281 mm^3
- average tumor volume ([1]; 500 μCi, week 3): 1110 mm^3
- average tumor volume ([1]; 500 μCi, week 4): 1300 mm^3
- average tumor volume ([1]; 500 μCi, week 5): 1626 mm^3
- average tumor volume ([1]; 500 μCi, week 6): 1735 mm^3
- average tumor volume ([1]; 500 μCi, week 7): 1697 mm^3
- tumor growth ([1]; pilot study, single 500 μCi dose): significant regression in tumor growth
- tumor response ([2]; single injection 20 μCi, listed as 125I-NM404): regressed significantly; also recorded: regressed dramatically; also recorded: significantly reduced
- tumor retention [5]: retention is evident even after 20 days
- time over which tumors could be imaged ([3]; mammary and prostate tumors in mice): > 60 days
- period of prolonged tumor retention post-injection ([3]; mice): 20 to 60 days
